Patent publication US9605027B2, “Polypeptides that bound to IL-23 receptor and inhibit binding of IL-23 and cell signaling thereof” (Medical Diagnostic Laboratories, LLC, priority 2011, dated 2017)
“Also recorded” adds a separate entry of the source. Read-outs that look alike come from different tables or passages of the source. Peptide text beside a SMILES is read from it.

Tests used:
[1] = tested on: IL-23 induced IL-17F production in human Th17 cells; assay: IL-17F production induced by IL-23 in in vitro differentiated human Th17 cells; assay type: cell-based; conditions: IL-23 1 ng/ml, peptide 0-10 μM, ELISA; read-out: IC50, inhibition of IL-17F production
Experimental: To that end, we designed and performed an in vitro assay using human differentiated Th17 cells. CD4+ naive T cells were negatively enriched using a human CD4+ naive T cells enrichment kit (StemCell Technologies, Catalog #19155). The purity of enriched CD4+ naive T cells was determined by FACS analysis. 1×10^6 cells/ml of CD4+ naive T cells were differentiated into Th17 cells under Th17 culture condition (CD3/28 beads, 10 ng/ml of IL-1β, 10 ng/ml of IL-6, 10 ng/ml of IL-23 and 1 ng/ml of TGF-β) for 5 days. All cytokines were purchased from Humanzyme. The CD3/28 beads were used according to the manufacturer's instructions (Miltenyi Biotec). Differentiation of Th17 cells was confirmed by the production of IL-17F using ELISA.
Experiments were performed where cyclic peptide no. 2HT AA (SEQ ID NO: 177) was added to the differentiated Th17 cells 30 minutes before the addition of IL-23 cytokine Th17 cells were stimulated for 2 days. Ionomycin (1 μg/ml)/PMA (50 ng/ml) (BD biosciences, San Jose, Calif.) were added to the stimulated cells 4 hours before the collection of media to measure the IL-17F production by ELISA (Catalog #88-7478, eBioscience, San Diego, Calif.). […]
CD4+ naive T cells were negatively enriched using human CD4+ naive T cells enrichment kit (StemCell Technologies, Catalog #19155). The purity of naive T cells was measured by FACS analysis. […]

[2] = biological target: IL-23R pathway in STAT3-Luc reporter DB cells (Homo sapiens, UniProt Q5VWK5); assay: Cell-based STAT3-Luc reporter DB cell assay (DB-Luc), inhibition of IL-23
Experimental: (§1) The Cignal STAT3 reporter (SA Biosciences, CCS-9028L), designed to measure the transcriptional activity of STAT3 homodimers, was transiently transfected into the DB cells. The stably transfected STAT3-Luc reporter clone was selected using 200 ng/ml of Hygromycin B.
The stably transfected STAT3-Luc reporter DB cells (0.5×10^6) were cultured in 100 μl of RPMI+10% FBS. IL-23 was added to the cells and incubated at 37° C. for 4 hours. Luciferase activity was measured using Dual-Glo luciferase assay system (Promega).
The isolated cyclic polypeptide no. 23.15-Fc fusion protein and cyclic polypeptide no. 23.19 were used in a cell-based assay to measure the IC50 values. The stably transfected STAT3-Luc reporter DB cells (0.5×10^6) were cultured in 100 μl of RPMI+10% FBS. The cells were pre-incubated with different concentration of isolated cyclic polypeptide no. 23.15-Fc fusion protein or polypeptide no. 23.19 for 30 minutes at 37° C. 50 ng/ml of IL-23 was added to the cells and incubated at 37° C. for an additional 4 hours. Luciferase activity was measured using Dual-Glo luciferase assay system (Promega). The IC50 values of isolated cyclic polypeptide no. 23.15-Fc fusion protein and cyclic polypeptide no. 23.19 are 2.5 μM and 2.5 μM respectively.
The isolated peptide no. 7 (SEQ ID NO: 156) and peptide no. 23.19 (SEQ ID NO: 130) (it is a cyclic version of the polypeptide no. 23.15) were used in a cell based assay to compare their inhibitory activity. The stably transfected STAT3-Luc reporter DB cells (0.5×10^6) were cultured in 100 μl of RPMI+10% FBS. The cells were pre-incubated with two different concentrations (10 μM and 2 μM) of isolated peptides for 30 minutes at 37° C. 50 ng/ml of IL-23 was added to the cells and incubated at 37° C. for an additional 4 hours. Luciferase activity was measured using Dual-Glo luciferase assay system (Promega). The inhibitory activity of isolated peptide no. 7 (SEQ ID NO: 156) is better than that of peptide no. 23.19 (SEQ ID NO: 130) (a cyclic version of polypeptide no. 23.15 (SEQ ID NO: 126) (See, FIG. 62).
DB cells express IL-23R on the cell surface. In addition, IL-23 stimulated the DB cells through the activation of STAT3 by phosphorylation (p-STAT3) (Example 7 (Figures. 14 and 15)). Based on these observations, DB cells were used to develop a cell-based assay to measure the inhibitory activity of peptide and peptide-Fc fusion protein in the IL-23R pathway. […]
as §1, with “CCS-9028L), which is” for “CCS-9028L),”, “B. The activity of IL-23R pathway can be measured by the transcriptional activity of STAT3 homodimers. […]” for “B.”

Sequence of IL-23R pathway in STAT3-Luc reporter DB cells (Q5VWK5 24-629 limits assumed): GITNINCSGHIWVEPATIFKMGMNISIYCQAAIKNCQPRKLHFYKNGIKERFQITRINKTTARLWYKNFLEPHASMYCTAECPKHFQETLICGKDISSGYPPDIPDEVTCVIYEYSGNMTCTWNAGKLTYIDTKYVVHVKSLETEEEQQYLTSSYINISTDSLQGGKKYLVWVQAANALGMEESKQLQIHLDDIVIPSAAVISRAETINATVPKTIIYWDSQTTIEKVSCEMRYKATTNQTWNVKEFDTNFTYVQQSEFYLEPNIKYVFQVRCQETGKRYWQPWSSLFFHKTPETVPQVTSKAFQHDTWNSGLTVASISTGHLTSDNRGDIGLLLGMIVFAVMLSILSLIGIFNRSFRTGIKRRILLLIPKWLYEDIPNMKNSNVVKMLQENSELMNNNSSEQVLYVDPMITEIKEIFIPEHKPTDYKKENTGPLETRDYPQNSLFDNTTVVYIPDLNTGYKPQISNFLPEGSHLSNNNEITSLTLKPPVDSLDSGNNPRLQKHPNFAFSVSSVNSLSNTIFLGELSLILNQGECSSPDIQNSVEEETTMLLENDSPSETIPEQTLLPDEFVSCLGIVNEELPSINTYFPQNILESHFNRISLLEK

CSCC[C@@H]1NC(=O)[C@H](CCCCN)NC(=O)[C@H](C)NC(=O)[C@H](C)NC(=O)[C@H](CS)NC(=O)[C@H](CC(N)=O)NC(=O)[C@H](CCCCN)NC(=O)[C@H](CC(C)C)NC(=O)[C@H](Cc2c[nH]c3ccccc23)NC(=O)[C@H](Cc2ccc(O)cc2)NC(=O)[C@H](CC(=O)O)NC(=O)[C@H](C(C)C)NC(=O)[C@H](Cc2c[nH]c3ccccc23)NC(=O)[C@H]([C@@H](C)O)NC1=O [2HT AA] (cyclo(AAKMTWVDYWLKNC))
IC50 [1]: 339 nM | inhibitory activity in cell-based DB-Luc assay ([2]; cyclic vs linear peptides): did not eliminate the inhibitory activity; also recorded: best inhibitory activity | IC50 ([2]; procedure of Example 29, read-out: IC50, cell-based DB-Luc assay): 342 nM

CSCC[C@@H]1NC(=O)[C@H](C)NC(=O)[C@@H](N)CSSC[C@@H](C(=O)O)NC(=O)[C@H](CCCNC(=N)N)NC(=O)CNC(=O)[C@H](Cc2ccc(O)cc2)NC(=O)[C@H](CC(C)C)NC(=O)[C@H](Cc2c[nH]c3ccccc23)NC(=O)[C@H](Cc2ccc(O)cc2)NC(=O)[C@H](CC(=O)O)NC(=O)[C@H](CCC(N)=O)NC(=O)[C@H](Cc2c[nH]c3ccccc23)NC(=O)[C@H]([C@@H](C)O)NC1=O [23.19]
IC50 ([2]; 50 ng/ml IL-23, 4 hours, read-out: IC50, cell-based STAT3-Luc assay): 2500 nM
